Values joined by “and” are separate entries in the source; they are usually repeats but may differ in a detail not shown here. Identical values can stand only once.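 Test compounds were applied to cells in 96-well plates for 48 hours at 5 doses. GI50 = concentration required for 50% inhibition of growth.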 Active and inactive are the calls of the source. Cut-off read from the data, not from the text of the source: active = GI50 up to about 1.1 µM and inactive = higher. Non-standard residues stand in square brackets, D forms with d. Residues, ends and D or L forms follow the SMILES beside them. ξ: configuration not given here. *: point of attachment. ξF = NC(Cc1ccccc1)C(=O)O; Cbz = O=C(OCc1ccccc1)*; Aib = CC(C)(N)C(=O)O
Key:
Assay in all cases: NCI anticancer screen, dose series, 48 h
KM12 = test system: KM12
OVCAR-4 = test system: OVCAR-4
EKVX = test system: EKVX
SF-295 = test system: SF-295
HCC 2998 = test system: HCC 2998
COLO 205 = test system: COLO 205
UO-31 = test system: UO-31
SF-268 = test system: SF-268
OVCAR-3 = test system: OVCAR-3
OVCAR-8 = test system: OVCAR-8
NCI-H460 = test system: NCI-H460
HT-29 = test system: HT-29
LOX IMVI = test system: LOX IMVI
SK-MEL-2 = test system: SK-MEL-2
SNB-19 = test system: SNB-19
HL-60 = test system: HL-60
CCRF-CEM = test system: CCRF-CEM
RPMI-8226 = test system: RPMI-8226
ACHN = test system: ACHN
DU-145 = test system: DU-145

Row | Compound | GI50 (KM12) | GI50 (OVCAR-4) | GI50 (EKVX) | GI50 (SF-295) | GI50 (HCC 2998) | GI50 (COLO 205) | GI50 (UO-31) | GI50 (SF-268) | GI50 (OVCAR-3) | GI50 (OVCAR-8) | GI50 (NCI-H460) | GI50 (HT-29) | GI50 (LOX IMVI) | GI50 (SK-MEL-2) | GI50 (SNB-19) | GI50 (HL-60) | GI50 (CCRF-CEM) | GI50 (RPMI-8226) | GI50 (ACHN) | GI50 (DU-145)
1 | Nc1ccn(C2OC(COP(=O)(O)Oc3ccccc3)C(O)C2O)c(=O)n1 (stereo unspecified) | > 100 µM (inactive) | > 100 µM (inactive) | 13.5 µM (inactive) | > 100 µM (inactive) | > 100 µM (inactive) | 61.9 µM (inactive) | 30.6 µM (inactive) | 20 µM (inactive) | > 100 µM (inactive) | 7.67 µM (inactive) | 2.6 µM (inactive) | > 100 µM (inactive) | 6.61 µM (inactive) | > 100 µM (inactive) | > 59.4 µM (inactive) | 61.2 µM (inactive) | 1.01 µM (active) | > 100 µM (inactive) |  | 
2 | C=CCCCC12CCCc3cccc(c31)NC2=O (stereo unspecified) | 17.4 µM (inactive) | 18.9 µM (inactive) | 19.1 µM (inactive) | 76.2 µM (inactive) | 16.4 µM (inactive) | 20.2 µM (inactive) | 30.4 µM (inactive) |  | 18 µM (inactive) |  | 16.8 µM (inactive) |  | 21.6 µM (inactive) | 23.2 µM (inactive) | 23.4 µM (inactive) | 15.5 µM (inactive) | 16.9 µM (inactive) | 19.7 µM (inactive) | 28.1 µM (inactive) | 
3 | CCOC(=O)CNC(=O)C(Cc1ccccc1)NC(=O)C(C)(C)NC(=O)OCc1ccccc1 (stereo unspecified) (Cbz-[Aib]-[ξF]-Gly-OEt) |  | > 100 µM (inactive) | > 100 µM (inactive) | > 100 µM (inactive) | 43.5 µM (inactive) | 93.1 µM (inactive) | > 100 µM (inactive) | > 100 µM (inactive) | 21.5 µM (inactive) | > 100 µM (inactive) | > 10 µM (inactive) | > 100 µM (inactive) | 49.4 µM (inactive) |  | > 100 µM (inactive) | 32.9 µM (inactive) | > 100 µM (inactive) | 32.6 µM (inactive) | > 100 µM (inactive) | 28.6 µM (inactive)
4 | CCN(CC)CCn1c(=O)c2c(C)c3oc4ccccc4oc3c(C)c2c1=O | > 100 µM (inactive) | > 100 µM (inactive) | > 100 µM (inactive) | > 100 µM (inactive) | > 100 µM (inactive) | > 100 µM (inactive) |  | > 100 µM (inactive) |  | > 100 µM (inactive) | > 100 µM (inactive) | > 100 µM (inactive) | > 100 µM (inactive) | > 100 µM (inactive) | > 100 µM (inactive) | > 100 µM (inactive) | > 100 µM (inactive) | > 100 µM (inactive) | > 100 µM (inactive) | 
5 | C/C(CCOC1CCCCO1)=C(\C)[Si](C)(C)C (stereo unspecified) | > 100 µM (inactive) |  | > 100 µM (inactive) | > 100 µM (inactive) | > 100 µM (inactive) | > 100 µM (inactive) | > 100 µM (inactive) | > 100 µM (inactive) | > 100 µM (inactive) | > 100 µM (inactive) | > 100 µM (inactive) | > 100 µM (inactive) | > 100 µM (inactive) | > 100 µM (inactive) | > 100 µM (inactive) | 93.3 µM (inactive) | 65.5 µM (inactive) | > 100 µM (inactive) | > 100 µM (inactive) | 
6 | O=C(Nc1nnc(S)[nH]1)C(=O)C(c1cnc2ccc([N+](=O)[O-])cc2n1)[N+](=O)[O-] (stereo unspecified) | > 100 µM (inactive) | > 100 µM (inactive) | > 100 µM (inactive) | > 100 µM (inactive) | > 100 µM (inactive) | > 100 µM (inactive) | > 100 µM (inactive) | > 100 µM (inactive) | > 100 µM (inactive) | > 100 µM (inactive) | > 100 µM (inactive) | > 100 µM (inactive) | > 100 µM (inactive) |  | > 100 µM (inactive) | > 100 µM (inactive) | > 100 µM (inactive) | 89.7 µM (inactive) | 94.8 µM (inactive) | 
7 | COc1ccc(N2C(=O)C(=O)N(C)C2=O)c2ccccc12 | > 10 µM (inactive) | > 10 µM (inactive) | > 10 µM (inactive) | > 10 µM (inactive) | > 10 µM (inactive) | > 10 µM (inactive) | > 10 µM (inactive) | > 10 µM (inactive) | > 10 µM (inactive) | > 10 µM (inactive) | > 10 µM (inactive) | > 10 µM (inactive) | > 10 µM (inactive) | > 10 µM (inactive) | > 10 µM (inactive) | > 10 µM (inactive) | > 10 µM (inactive) | > 10 µM (inactive) | > 10 µM (inactive) | > 10 µM (inactive)
8 | c1cc(CNC2C3CCC(C3)C2c2c[nH]c3ccccc23)cc(CNC2C3CCC(C3)C2c2c[nH]c3ccccc23)c1 (stereo unspecified) | 596 nM (active) and 759 nM (active) | 1.7 µM (inactive) and 1.58 µM (inactive) | 1.76 µM (inactive) and 1.58 µM (inactive) | 1.73 µM (inactive) and 1.46 µM (inactive) | 127 nM (active) and 145 nM (active) |  | 229 nM (active) and 160 nM (active) | 1.58 µM (inactive) and 1.53 µM (inactive) | 1.76 µM (inactive) and 1.71 µM (inactive) | 1.4 µM (inactive) and 1.46 µM (inactive) | 366 nM (active) and 405 nM (active) |  | 555 nM (active) and 232 nM (active) | 1.57 µM (inactive) and 1.91 µM (inactive) | 1.41 µM (inactive) and 1.39 µM (inactive) |  | 195 nM (active) and 325 nM (active) | 0.207 µM (active) | 1.19 µM (inactive) and 1.57 µM (inactive) | 1.57 µM (inactive) and 1.3 µM (inactive)
9 | CC1(C)Cc2nnsc2C2=C1C(=O)CCS2 | > 100 µM (inactive) | > 100 µM (inactive) | > 100 µM (inactive) | > 100 µM (inactive) | > 100 µM (inactive) | > 100 µM (inactive) | > 100 µM (inactive) | > 100 µM (inactive) | > 100 µM (inactive) | > 100 µM (inactive) | > 100 µM (inactive) | > 100 µM (inactive) | > 100 µM (inactive) | > 100 µM (inactive) | > 100 µM (inactive) | > 100 µM (inactive) | > 100 µM (inactive) | > 100 µM (inactive) | > 100 µM (inactive) | 
10 | O=c1sc2ccccc2n1CC1CS1 (stereo unspecified) | > 100 µM (inactive) | > 100 µM (inactive) | > 100 µM (inactive) | > 100 µM (inactive) | > 100 µM (inactive) | > 100 µM (inactive) | > 100 µM (inactive) | > 100 µM (inactive) | > 100 µM (inactive) | > 100 µM (inactive) | > 100 µM (inactive) | > 100 µM (inactive) | > 100 µM (inactive) | > 100 µM (inactive) | > 100 µM (inactive) | > 100 µM (inactive) | > 100 µM (inactive) | > 100 µM (inactive) | > 100 µM (inactive) | 
11 | C[n+]1cccc2c(=O)c3ccccc3oc21 | > 100 µM (inactive) | > 100 µM (inactive) | > 100 µM (inactive) | > 100 µM (inactive) | > 100 µM (inactive) | > 100 µM (inactive) | 69.5 µM (inactive) | > 100 µM (inactive) | > 100 µM (inactive) | > 100 µM (inactive) | > 100 µM (inactive) | > 100 µM (inactive) | > 100 µM (inactive) | > 100 µM (inactive) | > 100 µM (inactive) | > 100 µM (inactive) | > 100 µM (inactive) |  | > 100 µM (inactive) | > 100 µM (inactive)
12 | COc1ccc(-n2cnnc2-c2nsc3ccccc23)cc1 | 95.1 µM (inactive) | > 100 µM (inactive) | > 100 µM (inactive) |  | > 100 µM (inactive) | > 100 µM (inactive) | > 100 µM (inactive) | 75.3 µM (inactive) | 51.4 µM (inactive) | > 100 µM (inactive) | > 100 µM (inactive) | 92.5 µM (inactive) | > 100 µM (inactive) | > 100 µM (inactive) | > 100 µM (inactive) | 78 µM (inactive) | > 100 µM (inactive) | 60 µM (inactive) | 90.6 µM (inactive) | 
13 | O=c1[nH]c(=S)[nH]c2c(C3OC(CO)C(O)C3O)nsc12 (stereo unspecified) |  | > 100 µM (inactive) | > 100 µM (inactive) | > 100 µM (inactive) | > 100 µM (inactive) | > 100 µM (inactive) |  | > 100 µM (inactive) | > 100 µM (inactive) | > 100 µM (inactive) | > 100 µM (inactive) | > 100 µM (inactive) | > 100 µM (inactive) | > 100 µM (inactive) |  | > 100 µM (inactive) | > 100 µM (inactive) |  |  | > 100 µM (inactive)
14 | COc1ccc(N2C(=O)C(=O)C3(CCCCC3)C2=O)c2ccccc12 | > 10 µM (inactive) | > 10 µM (inactive) | > 10 µM (inactive) | > 10 µM (inactive) | > 10 µM (inactive) | > 10 µM (inactive) | 9.77 µM (inactive) | > 10 µM (inactive) |  | > 10 µM (inactive) | > 10 µM (inactive) | > 10 µM (inactive) | > 10 µM (inactive) | > 10 µM (inactive) | > 10 µM (inactive) | > 10 µM (inactive) | > 10 µM (inactive) | > 10 µM (inactive) | > 10 µM (inactive) | > 10 µM (inactive)

Source: ChEMBL document CHEMBL1201862, “PubChem BioAssay data set” (2004)
